Test results reported in patent US5187171A (G. D. Searle & Co., priority 1989, dated 1993).

Key:
[1] = test system: mentally disturbed patients; conditions: 500 mg per day, cited from earlier work
[2] = molecular target: T1, NMDA receptor-associated glycine recognition site ("Glycine B receptor") (Rattus norvegicus, UniProt P35439); assay: TCP modulation assay (stimulation of [3H]TCP binding); type: biochemical; conditions: basal [3H]TCP binding
T1 construct: synaptic plasma membranes (SPM) prepared from rat forebrain; from tissue; host or cells: rat forebrain (male Sprague-Dawley, animals from Sasco) synaptic plasma membranes, Triton X-100 washed
Procedure: [^3 H]TCP binding was performed using Triton X-100 washed synaptic plasma membranes (SPM) prepared from rat forebrain (30-45 day old, male Sprague-Dawley; Sasco, St. Charles, Mo.) as described previously [J. W. Thomas, W. F. Hood, J. B. Monahan, P. C. Contreras and T. L. O'Donohue, Brain Res., 442, 396-398 (1988)]. […] The samples were then filtered through glass fiber filters (Schleicher and Schuell #32) which were pretreated with 0.05% (v/v) polyethylenimine. The filters were washed and the radioactivity quantitated by liquid scintillation spectrometry. […] The EC50 values for the stimulation of [^3 H]TCP binding were determined using a four parameter logistic regression analysis.

N[C@@H]1CONC1=O [D-cycloserine, 4-amino-3-isoxazolidone]
Clinical response ([1]; mentally disturbed patients): improvements in depression, insomnia, anexoria or tension were found for some patients
Clinical response of patients suffering from severe neurosis or psychosis [1]: responded poorly
Maximal stimulation of [3H]TCP binding compared with glycine and D-serine [2]: significantly less than that produced by both glycine and D-serine
